# From patent US7465789B2, “Adenosine receptor” (Schering Corporation, priority 2001, dated 2008)
# Tests used:
# SP166 [1] = target: T1, SP166 (Homo sapiens, UniProt Q9BXA5, L244P); experiment: FLIPR intracellular Ca++ flux assay in BAF/3 cells stably transfected with SP166; assay type: cell-based
# T1 construct: expressed in transfected cells; host or cells: BAF/3 (murine IL-3 dependent B-cell line), retroviral transduction, G418 selection
# T1 sequence (Q9BXA5 1-334 L244P): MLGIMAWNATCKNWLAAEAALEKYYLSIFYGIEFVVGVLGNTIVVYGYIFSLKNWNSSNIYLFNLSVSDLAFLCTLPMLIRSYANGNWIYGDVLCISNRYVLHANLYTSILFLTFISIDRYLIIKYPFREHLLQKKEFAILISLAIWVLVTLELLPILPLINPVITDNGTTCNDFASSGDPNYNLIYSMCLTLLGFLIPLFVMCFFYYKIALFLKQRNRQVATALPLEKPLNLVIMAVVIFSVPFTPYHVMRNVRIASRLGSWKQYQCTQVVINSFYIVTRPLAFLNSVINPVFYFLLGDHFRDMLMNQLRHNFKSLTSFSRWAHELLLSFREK
# SP166 [2] = target: T1, SP166; experiment: Radioligand saturation and competition binding assay with [3H]-NECA on membranes of cells transfected with SP166; details: radioligand saturation and competition assays
# Procedure: Membrane preparation: Cells transfected with SP166 as described above were harvested by incubating in 5 mM EDTA/phosphate-buffered saline followed by repeated pipetting. The cells were centrifuged 5 min at 1000×g. The EDTA/PBS was decanted and an equal volume of ice-cold 50 mM Tris-HCl, pH 7.5, was added and cells were broken up with a Polytron (PT10 tip, setting 5, 30 sec). Nuclei and unbroken cells were sedimented at 1000×g for 10 min and then the supernatant was centrifuged at 50,000×g for 10 min. The supernatant was decanted, the pellet was resuspended by Polytron, a sample was taken for protein assay (bicinchoninic acid, Pierce), and the tissue was again centrifuged at 50,000×g. Pellets were stored frozen at […].
# Binding assay: For saturation binding, four concentrations of [^3H]-NECA were incubated without and with 10^−5 M adenosine in triplicate with 50 ug of membrane protein in a total volume of 200 μl of 50 mM Tris-HCl, pH 7.5, for 30 min at 30° C. Samples were filtered on GF/B filters and washed thrice with 2 ml of cold Tris buffer. Filters were dried in a microwave oven, impregnated with Meltilex wax scintillant, and counted at 45% efficiency. For competition binding assays, five concentrations of compounds were incubated in triplicate with 18 nM [^3H]NECA and 70 μg of membrane protein under the conditions described above. […]
# mock transfected cells = experiment: FLIPR intracellular Ca++ flux assay in mock transfected cells
activation of SP166 by adenosine analogs (SP166 [1]),"activation of SP166 (change in intracellular Ca++) (SP166 [1]; naturally occurring nucleotides and nucleosides examined, SP166-transfected BAF/3 cells)",binding to the cloned receptor (SP166 [2]),Compound,activation by adenosine in mock transfected cells (mock transfected cells)
able to activate,–,–,(R)α-methyladenosine,–
–,specifically activated,able to bind,Nc1ncnc2c1ncn2[C@@H]1O[C@H](CO)[C@@H](O)[C@H]1O [adenosine],not observed
inactive,–,–,(S)α-methyladenosine,–
able to activate,–,–,Nα-methyladenosine,–
